Assay results as given in ChEMBL document CHEMBL1201862, “PubChem BioAssay data set” (2004).
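The compound was tested at five concentrations on cells cultured in 96-well plates, with a 48-hour exposure period. Here, GI50 denotes the concentration required for 50% inhibition of growth.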 Activity calls are given as the source filed them. Rule as the data show it: active = GI50 up to about 1.1 µM and inactive = higher.

Assays:
Assay in all cases: inhibition of tumour cell growth, NCI panel, 48 h
KM12 = system: KM12
HOP-92 = system: HOP-92
MDA-MB-435 = system: MDA-MB-435
SF-539 = system: SF-539
OVCAR-4 = system: OVCAR-4
PC-3 = system: PC-3
MDA-N = system: MDA-N
ACHN = system: ACHN
HCC 2998 = system: HCC 2998
M14 = system: M14
NCI-H522 = system: NCI-H522
BT-549 = system: BT-549
NCI/ADR-RES = system: NCI/ADR-RES
UACC-257 = system: UACC-257
UO-31 = system: UO-31
786-0 = system: 786-0
OVCAR-5 = system: OVCAR-5
SK-MEL-28 = system: SK-MEL-28
MCF7 = system: MCF7
SNB-75 = system: SNB-75

Row | SMILES | GI50 (KM12) | GI50 (HOP-92) | GI50 (MDA-MB-435) | GI50 (SF-539) | GI50 (OVCAR-4) | GI50 (PC-3) | GI50 (MDA-N) | GI50 (ACHN) | GI50 (HCC 2998) | GI50 (M14) | GI50 (NCI-H522) | GI50 (BT-549) | GI50 (NCI/ADR-RES) | GI50 (UACC-257) | GI50 (UO-31) | GI50 (786-0) | GI50 (OVCAR-5) | GI50 (SK-MEL-28) | GI50 (MCF7) | GI50 (SNB-75)
1 | C#Cc1cc(-c2nc3ccccc3s2)ccc1N | 18.9 µM (inactive) | 11 µM (inactive) | 19.5 µM (inactive) | 32.2 µM (inactive) | 17.6 µM (inactive) | 24.9 µM (inactive) | 33 µM (inactive) | 24 µM (inactive) | 10.3 µM (inactive) | 17.6 µM (inactive) | 15.8 µM (inactive) | 20 µM (inactive) | 27.7 µM (inactive) | 12.6 µM (inactive) | 14.2 µM (inactive) | 34.4 µM (inactive) | 32 µM (inactive) | 16.1 µM (inactive) | < 0.01 µM (active) | 
2 | CCOc1cc2c(cc1O)/C(=N\OC)C[C@@H]1[C@@H]2CC[C@]2(C)[C@@H](O)CC[C@@H]12 | 0.423 µM (active) | 7.64 µM (inactive) | 0.0282 µM (active) |  | 10.7 µM (inactive) | 1.39 µM (inactive) | < 0.0163 µM (active) | 1.09 µM (active) | 1.25 µM (inactive) | 0.15 µM (active) | 0.0288 µM (active) | 1.71 µM (inactive) | 0.0319 µM (active) |  | 0.875 µM (active) | < 0.0403 µM (active) | 21.6 µM (inactive) | 1.61 µM (inactive) | 0.0238 µM (active) | 0.0219 µM (active)
3 | O=C(C[C@H](NC(=O)OCc1ccccc1)C(=O)NC1Cc2ccccc2OC1=O)OCc1ccccc1 (stereo partly specified) | > 100 µM (inactive) | > 100 µM (inactive) | > 100 µM (inactive) |  |  | 21.8 µM (inactive) | > 100 µM (inactive) |  | 15.9 µM (inactive) | > 100 µM (inactive) | > 100 µM (inactive) | > 100 µM (inactive) | > 100 µM (inactive) |  | > 100 µM (inactive) |  | > 100 µM (inactive) | > 100 µM (inactive) | 19.4 µM (inactive) | > 100 µM (inactive)
4 | CCOC(=O)C(Cc1ccc(OC(=O)c2ccc(OC)cc2OC)cc1)NC(=O)C(F)(F)F (stereo unspecified) | 29.4 µM (inactive) | 23.1 µM (inactive) | 18.7 µM (inactive) | 23.2 µM (inactive) | 23.5 µM (inactive) | 21.8 µM (inactive) | 20 µM (inactive) | 17.2 µM (inactive) | 16.5 µM (inactive) | 17.5 µM (inactive) | 17.9 µM (inactive) | 79.1 µM (inactive) | 32 µM (inactive) | 15.3 µM (inactive) | 18 µM (inactive) | 31.9 µM (inactive) | > 100 µM (inactive) |  | 19.7 µM (inactive) | 16.4 µM (inactive)
5 | O=C(Cn1c(C(=O)/C=C/c2ccc(Cl)cc2)nc2ccccc21)c1ccc(Cl)cc1 | 7.26 µM (inactive) | 34.3 µM (inactive) | 17.1 µM (inactive) | 18.3 µM (inactive) | 13.4 µM (inactive) | 22.5 µM (inactive) | 20.7 µM (inactive) | 20.7 µM (inactive) | 14.4 µM (inactive) | 18.1 µM (inactive) |  | 24.5 µM (inactive) | 20.5 µM (inactive) | 24.1 µM (inactive) | 19.8 µM (inactive) | 20.6 µM (inactive) | 26.8 µM (inactive) | 21.7 µM (inactive) | 15.2 µM (inactive) | 
6 | O=C1Nc2ccc(S(=O)(=O)O)cc2/C1=C1/Nc2ccc(Br)cc2C1=O | > 100 µM (inactive) | > 100 µM (inactive) | > 100 µM (inactive) |  | > 100 µM (inactive) | > 100 µM (inactive) | > 100 µM (inactive) | > 100 µM (inactive) | > 100 µM (inactive) | > 100 µM (inactive) | > 100 µM (inactive) | > 100 µM (inactive) | > 100 µM (inactive) | > 100 µM (inactive) | > 100 µM (inactive) | > 100 µM (inactive) | > 100 µM (inactive) | > 100 µM (inactive) | 72.8 µM (inactive) | > 100 µM (inactive)
7 | COP(=O)(/C=C/c1cc(C(=O)OCc2ccccc2)n(S(=O)(=O)c2ccccc2)c1)OC | > 100 µM (inactive) |  | > 100 µM (inactive) | > 100 µM (inactive) | > 100 µM (inactive) | > 100 µM (inactive) | > 100 µM (inactive) | > 100 µM (inactive) | > 100 µM (inactive) | > 100 µM (inactive) | > 100 µM (inactive) | > 100 µM (inactive) | > 100 µM (inactive) | > 100 µM (inactive) | > 100 µM (inactive) | > 100 µM (inactive) | > 100 µM (inactive) | > 100 µM (inactive) | > 100 µM (inactive) | 57.1 µM (inactive)
8 | CCCCCCCSCC(O)COC(c1ccccc1)(c1ccccc1)c1ccccc1 (stereo unspecified) | 0.051 µM (active) | 26.7 µM (inactive) | 56.4 µM (inactive) | > 100 µM (inactive) | 49.9 µM (inactive) | 29.3 µM (inactive) | 40.9 µM (inactive) | 25.5 µM (inactive) | 19.4 µM (inactive) | 61.7 µM (inactive) | 35.2 µM (inactive) | 73.1 µM (inactive) | 72.1 µM (inactive) | 34.5 µM (inactive) | 5.81 µM (inactive) | 48.8 µM (inactive) | 34.8 µM (inactive) | > 100 µM (inactive) | 40.1 µM (inactive) | 
9 | CC(NC(=O)C(N)Cc1ccc(O)cn1)C(=O)O (stereo unspecified) | > 100 µM (inactive) | > 100 µM (inactive) | > 100 µM (inactive) | > 100 µM (inactive) | > 100 µM (inactive) | > 100 µM (inactive) | > 100 µM (inactive) | > 100 µM (inactive) | > 100 µM (inactive) |  | > 100 µM (inactive) | > 100 µM (inactive) | > 100 µM (inactive) | > 100 µM (inactive) | > 100 µM (inactive) | > 100 µM (inactive) | > 100 µM (inactive) | > 100 µM (inactive) | > 100 µM (inactive) | 
10 | CCOC(=O)C1=c2[nH]c3cccc4cccc(c43)n2C(=O)CC1 | 26 µM (inactive) | 30.5 µM (inactive) | > 100 µM (inactive) |  | > 100 µM (inactive) | 93.8 µM (inactive) | > 100 µM (inactive) | > 100 µM (inactive) | 84.7 µM (inactive) | > 100 µM (inactive) |  | > 100 µM (inactive) | > 100 µM (inactive) | > 100 µM (inactive) | 38.6 µM (inactive) | 34.4 µM (inactive) | > 100 µM (inactive) | > 100 µM (inactive) | 36.2 µM (inactive) | > 100 µM (inactive)
11 | COc1ccc(N2C(=O)C3c4[nH]c5ccc(OC)cc5c4C4CCC(C(C)C)CC4C3C2=O)cc1 (stereo unspecified) | > 100 µM (inactive) | > 54.2 µM (inactive) | > 100 µM (inactive) |  | > 55.1 µM (inactive) | > 100 µM (inactive) | > 100 µM (inactive) | > 100 µM (inactive) | 33.7 µM (inactive) | 34.1 µM (inactive) | 18.1 µM (inactive) | > 100 µM (inactive) | > 100 µM (inactive) | > 100 µM (inactive) | > 100 µM (inactive) | 14.9 µM (inactive) | > 100 µM (inactive) | > 73.6 µM (inactive) | > 100 µM (inactive) | 17.7 µM (inactive)
